This is an account of results in paper PMC9430770 (Microbiology Spectrum, 2022).

This experiment concerns C. albicans SN152. The experiment in a line: Galleria mellonella infection model, SN152 strain. It is filed as in vivo, Candida albicans. The conditions noted are these: G. mellonella, 10 mg/kg. The method, then:
To assess whether Eno1 is a therapeutic target of BE, we constructed a homozygous deletion strain for the ENO1 gene (eno1/eno1). We then investigated the difference in the antifungal efficacy of BE on the infections caused by the parent strain SN152 and the eno1/eno1 strain in the Galleria mellonella infection model. We divided the G. mellonella into 5 groups, with 10 larvae in each group. All 10 larvae died after a 24-h infection with the SN152 strain, while only 3 larvae died after 24 h when infected with the eno1/eno1 strain; the remaining larvae died within 7 days. Compared with the group infected with the parent strain, the survival time of the group infected with the eno1/eno1 strain was longer (P < 0.01) (Fig. 4A). […]
FIG 4 Eno1 acts as a therapeutic target of BE. […] Each curve represents a group of 10 larvae (n =10) monitored daily for survival for up to 10 days after infection. […]
Virulence testing of C. albicans was done in Galleria mellonella as described previously ([56]). […] After growth in YPD media overnight at 30°C and 200 rpm, C. albicans SN152 cells or eno1/eno1 mutant cells were washed with PBS 3 times and diluted to the desired concentration (1 × 10^7 cells/mL) determined by counting with a hemacytometer. […] The death of G. mellonella was assessed daily and analyzed statistically by the Kaplan-Meier method (log-rank test).

Turning to `O=c1cc(-c2ccccc2)oc2cc(O)c(O)c(O)c12` [BE, Baicalein], the “survival rate of larvae extended versus infected group without drug treatment” value came out at 30%.
